{"source": "patent US20200085778A1", "about": "“Agent for Promoting Decomposition and Clearance of Amyloid-Beta” (Kao Corporation, priority 2017, published 2020)", "target": "T1, aggregated amyloid-β (amyloid-β peptide, Human, 1-42) (Homo sapiens, UniProt P05067)", "T1 construct": "An amyloid-β peptide (Human, 1-42, Peptide Institute, Inc.); purchased Peptide Institute, Inc", "T1 sequence (P05067 672-713)": "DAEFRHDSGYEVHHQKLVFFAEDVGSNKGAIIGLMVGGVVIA", "assay": "thioflavin T (ThT) fluorescence assay of degrading aggregated amyloid", "format": "biochemical", "settings": "final concentration 1, 10, or 100 μM, 37° C. for 7 days, vs 0.5% DMSO control; FIG. 1", "protocol": "The direct activity of degrading aggregated amyloid by chlorogenic acid (5-CQA) was examined using a thioflavin T (ThT) fluorescence assay. An amyloid-β peptide (Human, 1-42, Peptide Institute, Inc.) was dissolved in dimethyl sulfoxide (DMSO) to 2.5 mM and was further adjusted to 250 μM with sterile water, followed by incubation at 37° C. for 7 days to promote the aggregation reaction. After the reaction, chlorogenic acid (5-CQA, Cayman Chemical Company) was added to the aggregated amyloid-β (10 mass %) at a final concentration of 1, 10, or 100 μM, followed by further incubation at 37° C. for 7 days. As a control, 0.5% DMSO, which was used as the solvent of the chlorogenic acid, was added. After the reaction, ThT (Sigma-Aldrich, final concentration: 5 μM) dissolved in 50 mM glycine buffer (pH 8.5) was added to the reaction solution in a 96-well plate (ThermoFisher Scientific), followed by a reaction at room temperature for 15 minutes while gently stirring under light shielding. After the reaction, fluorescence was detected at 450 nm (excitation) and 480 nm (emission) using a fluorescence plate reader (Ensight 3400, PerkinElmer Co., Ltd.) to measure the degree of aggregation of amyloid-β."}
{"smiles": "O=C(/C=C/c1ccc(O)c(O)c1)O[C@@H]1C[C@](O)(C(=O)O)C[C@@H](O)[C@H]1O", "note": "[chlorogenic acid, 5-caffeoylquinic acid]", "values": [{"measurement": "activity of degrading aggregated amyloid (degree of aggregation of amyloid-β, ThT fluorescence)", "result": "has an activity of degrading aggregated amyloid in a dose-dependent manner"}]}
